In patent US9993494B2, “Compositions and methods for treating fibrotic disease” (eFFECTOR Therapeutics, Inc., priority 2014, dated 2018):

Test system: normal human lung fibroblasts
Assay: Ribosomal profiling: translational efficiency in TGFβ-treated fibroblasts
Assay type: cell-based
Conditions: TGFβ-treated fibroblasts
Method in brief: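 Cells lysed on ice after a cold PBS wash containing cycloheximide. Ribosome-protected fragments and total mRNA were prepared with the ARTseq kit and sequenced by RNA-Seq. Reads were trimmed, mapped to the human genome and counted uniquely over coding regions per gene, with low-count genes excluded before differential translational-efficiency analysis.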

`Cc1cc(C2CCCCC2)n(O)c(=O)c1.NCCO` [CPX, ciclopirox oloamine] was tested, and the “effect in renormalizing the translational profile of the gene” value (gene RPS6 (ENSG00000137154)) was “− (− = <0.9)”, the “effect in renormalizing the translational profile of the gene” value (gene RPS6KA5 (ENSG00000100784)) was “− (− = <0.9)” and the “effect in renormalizing the translational profile of the gene” value (gene RPS7 (ENSG00000171863)) was “− (− = <0.9)”. The “effect in renormalizing the translational profile of the gene” value (gene RPS8 (ENSG00000142937)) was “− (− = <0.9)”, the “effect in renormalizing the translational profile of the gene” value (gene RPS9 (ENSG00000170889)) was “− (− = <0.9)” and the “effect in renormalizing the translational profile of the gene” value (gene RPS10 (ENSG00000124614)) was “− (− = <0.9)”. For the same molecule, the “effect in renormalizing the translational profile of the gene” value (gene RPS11 (ENSG00000142534)) was “− (− = <0.9)”, the “effect in renormalizing the translational profile of the gene” value (gene RPS12 (ENSG00000112306)) was “− (− = <0.9)” and the “effect in renormalizing the translational profile of the gene” value (gene RPS13 (ENSG00000110700)) was “− (− = <0.9)”. For the same molecule, the “effect in renormalizing the translational profile of the gene” value (gene RPS14 (ENSG00000164587)) was “− (− = <0.9)”, the “effect in renormalizing the translational profile of the gene” value (gene RPS15 (ENSG00000115268)) was “− (− = <0.9)” and the “effect in renormalizing the translational profile of the gene” value (gene RPS15A (ENSG00000134419)) was “− (− = <0.9)”. For the same molecule, the “effect in renormalizing the translational profile of the gene” value (gene RPS16 (ENSG00000105193)) was “− (− = <0.9)”, the “effect in renormalizing the translational profile of the gene” value (gene RPS18 (ENSG00000231500)) was “− (− = <0.9)” and the “effect in renormalizing the translational profile of the gene” value (gene RPS19 (ENSG00000105372)) was “− (− = <0.9)”. For the same molecule, the “effect in renormalizing the translational profile of the gene” value (gene RPS20 (ENSG00000008988)) was “− (− = <0.9)”, the “effect in renormalizing the translational profile of the gene” value (gene RPS21 (ENSG00000171858)) was “− (− = <0.9)” and the “effect in renormalizing the translational profile of the gene” value (gene RPS23 (ENSG00000186468)) was “− (− = <0.9)”. For the same molecule, the “effect in renormalizing the translational profile of the gene” value (gene RPS24 (ENSG00000138326)) was “− (− = <0.9)”, the “effect in renormalizing the translational profile of the gene” value (gene RPS25 (ENSG00000118181)) was “− (− = <0.9)” and the “effect in renormalizing the translational profile of the gene” value (gene RPS26 (ENSG00000197728)) was “− (− = <0.9)”. The “effect in renormalizing the translational profile of the gene” value (gene RPS27 (ENSG00000177954)) was “− (− = <0.9)”, the “effect in renormalizing the translational profile of the gene” value (gene RPS27A (ENSG00000143947)) was “− (− = <0.9)” and the “effect in renormalizing the translational profile of the gene” value (gene RPS28 (ENSG00000233927)) was “+ (+ = 0.9 to 1.5)”. The “effect in renormalizing the translational profile of the gene” value (gene RPS29 (ENSG00000213741)) was “− (− = <0.9)”, the “effect in renormalizing the translational profile of the gene” value (gene RPSA (ENSG00000168028)) was “− (− = <0.9)” and the “effect in renormalizing the translational profile of the gene” value (gene RTN2 (ENSG00000125744)) was “− (− = <0.9)”. The “effect in renormalizing the translational profile of the gene” value (gene SEMA3A (ENSG00000075213)) was “− (− = <0.9)”, the “effect in renormalizing the translational profile of the gene” value (gene SGIP1 (ENSG00000118473)) was “− (− = <0.9)” and the “effect in renormalizing the translational profile of the gene” value (gene SH3BGR (ENSG00000185437)) was “− (− = <0.9)”. The “effect in renormalizing the translational profile of the gene” value (gene SHC3 (ENSG00000148082)) was “+++ (+++ = >2.0)”, the “effect in renormalizing the translational profile of the gene” value (gene SLC2A12 (ENSG00000146411)) was “− (− = <0.9)” and the “effect in renormalizing the translational profile of the gene” value (gene SLC7A7 (ENSG00000155465)) was “− (− = <0.9)”. The “effect in renormalizing the translational profile of the gene” value (gene SLC15A3 (ENSG00000110446)) was “− (− = <0.9)”, the “effect in renormalizing the translational profile of the gene” value (gene SLC25A6 (ENSG00000169100)) was “− (− = <0.9)” and the “effect in renormalizing the translational profile of the gene” value (gene SLC40A1 (ENSG00000138449)) was “++ (++ = 1.5 to 2.0)”. The “effect in renormalizing the translational profile of the gene” value (gene SMO (ENSG00000128602)) was “− (− = <0.9)”, the “effect in renormalizing the translational profile of the gene” value (gene SNRPA (ENSG00000077312)) was “− (− = <0.9)” and the “effect in renormalizing the translational profile of the gene” value (gene SOX5 (ENSG00000134532)) was “− (− = <0.9)”. For the same molecule, the “effect in renormalizing the translational profile of the gene” value (gene SOX6 (ENSG00000110693)) was “− (− = <0.9)”, the “effect in renormalizing the translational profile of the gene” value (gene SPATA6 (ENSG00000132122)) was “− (− = <0.9)” and the “effect in renormalizing the translational profile of the gene” value (gene STAMBPL1 (ENSG00000138134)) was “+ (+ = 0.9 to 1.5)”. For the same molecule, the “effect in renormalizing the translational profile of the gene” value (gene STS (ENSG00000101846)) was “− (− = <0.9)”, the “effect in renormalizing the translational profile of the gene” value (gene SYNE2 (ENSG00000054654)) was “− (− = <0.9)” and the “effect in renormalizing the translational profile of the gene” value (gene TAF1D (ENSG00000166012)) was “− (− = <0.9)”. For the same molecule, the “effect in renormalizing the translational profile of the gene” value (gene TDG (ENSG00000139372)) was “− (− = <0.9)”, the “effect in renormalizing the translational profile of the gene” value (gene TEN1 (ENSG00000257949)) was “− (− = <0.9)” and the “effect in renormalizing the translational profile of the gene” value (gene TET2 (ENSG00000168769)) was “− (− = <0.9)”. For the same molecule, the “effect in renormalizing the translational profile of the gene” value (gene TET3 (ENSG00000187605)) was “− (− = <0.9)”, the “effect in renormalizing the translational profile of the gene” value (gene TGFBI (ENSG00000120708)) was “− (− = <0.9)” and the “effect in renormalizing the translational profile of the gene” value (gene THBS3 (ENSG00000169231)) was “− (− = <0.9)”. For the same molecule, the “effect in renormalizing the translational profile of the gene” value (gene THG1L (ENSG00000113272)) was “− (− = <0.9)”, the “effect in renormalizing the translational profile of the gene” value (gene TIMM9 (ENSG00000100575)) was “− (− = <0.9)” and the “effect in renormalizing the translational profile of the gene” value (gene TKT (ENSG00000163931)) was “− (− = <0.9)”. The “effect in renormalizing the translational profile of the gene” value (gene TMTC1 (ENSG00000133687)) was “− (− = <0.9)”, the “effect in renormalizing the translational profile of the gene” value (gene TOMM7 (ENSG00000196683)) was “+ (+ = 0.9 to 1.5)” and the “effect in renormalizing the translational profile of the gene” value (gene TOP2A (ENSG00000131747)) was “− (− = <0.9)”. For the same molecule, the “effect in renormalizing the translational profile of the gene” value (gene TPGS1 (ENSG00000141933)) was “− (− = <0.9)”, the “effect in renormalizing the translational profile of the gene” value (gene TPM2 (ENSG00000198467)) was “− (− = <0.9)” and the “effect in renormalizing the translational profile of the gene” value (gene TPT1 (ENSG00000133112)) was “− (− = <0.9)”. The “effect in renormalizing the translational profile of the gene” value (gene TRERF1 (ENSG00000124496)) was “− (− = <0.9)”, the “effect in renormalizing the translational profile of the gene” value (gene UBA52 (ENSG00000221983)) was “− (− = <0.9)” and the “effect in renormalizing the translational profile of the gene” value (gene UQCRB (ENSG00000156467)) was “− (− = <0.9)”. The “effect in renormalizing the translational profile of the gene” value (gene UTRN (ENSG00000152818)) was “− (− = <0.9)”, the “effect in renormalizing the translational profile of the gene” value (gene VIM (ENSG00000026025)) was “− (− = <0.9)” and the “effect in renormalizing the translational profile of the gene” value (gene ZNF581 (ENSG00000171425)) was “− (− = <0.9)”.
